Reference: publication PMC8199331, “Baicalein Ameliorates Streptococcus suis-Induced Infection In Vitro and In Vivo” (International Journal of Molecular Sciences, 2021)

Biological target: SLY (suilysin) (Streptococcus suis, UniProt Q55996)
Test: biochemical

SLY (suilysin), sequence (Q55996 28-497 limits assumed): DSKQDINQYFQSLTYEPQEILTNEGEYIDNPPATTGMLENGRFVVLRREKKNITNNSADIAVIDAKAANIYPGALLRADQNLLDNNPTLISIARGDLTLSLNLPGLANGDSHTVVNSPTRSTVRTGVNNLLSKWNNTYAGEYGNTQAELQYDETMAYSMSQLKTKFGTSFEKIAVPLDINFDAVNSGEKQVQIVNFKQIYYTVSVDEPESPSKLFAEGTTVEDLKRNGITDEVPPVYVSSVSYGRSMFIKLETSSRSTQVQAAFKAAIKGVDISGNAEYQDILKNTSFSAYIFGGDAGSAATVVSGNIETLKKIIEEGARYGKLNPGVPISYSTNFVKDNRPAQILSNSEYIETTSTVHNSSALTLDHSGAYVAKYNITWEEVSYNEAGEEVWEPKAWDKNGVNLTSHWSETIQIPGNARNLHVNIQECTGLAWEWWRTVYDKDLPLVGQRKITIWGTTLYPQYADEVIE

`O=c1cc(-c2ccccc2)oc2cc(O)c(O)c(O)c12` [Baicalein] showed a Kd of 865 nM.
